The values below come from patent US20220267753A1, “RATIONAL THERAPEUTIC TARGETING OF ONCOGENIC IMMUNE SIGNALING STATES IN MYELOID MALIGNANCIES VIA THE UBIQUITIN CONJUGATING ENZYME UBE2N” (CHILDREN'S HOSPITAL MEDICAL CENTER, priority 2019, published 2022).

Each structure is given as a SMILES string.

A word on the IC50: it is the concentration that gives 50% inhibition. One may read the EC50 as the midpoint of the concentration-response curve. By AUC(0-inf) is commonly meant the area under the concentration-time curve extrapolated to infinity. A higher AUC(0-inf) goes with high exposure. Usually AUC(0-t) stands for the area under the concentration-time curve up to a stated or last time point. Low readings indicate low exposure, high ones high exposure. As usually defined, the Cmax is the maximum level reached in the sampled fluid or tissue. One may read the Tmax as the time at which the peak concentration occurs.

In data set [1] the test system is MOLM-13. The experiment in a line: Cell proliferation MTS assay / cytotoxicity screen. The data set is classed as cell-based, human. The note with it: for cytotoxicity screen in MOLM-13 cells: 2nd screen at 2 μM, 24 hr MTS. Here is the method:
AML cell lines (5×10^3 cells/well) were seeded in 96-well plates and grown for 24 to 96 h in serum (10%)-containing medium in the presence or absence of inhibitors at the indicated concentrations. Proliferation was analyzed by means of an MTS assay using the CellTiter 96 Aqueous One Solution Cell Proliferation Assay (Promega, Madison, Wis., USA), according to the manufacturer's instructions. Data are mean with standard deviation from three independent experiments in technical triplicates. For the screening of 160 compounds from the UC library, the cell metabolic activity was assessed at 24 hours of treatment of MOLM-13 cells. Top 15 candidates were re-screened at 2 μM, and the cell metabolic activity was determined at 24 hours of treatment. In certain experiments, cell viability was determined by staining the cells with trypan blue at a 1/2 dilution and counting total number of viable cells upon treatment with UC-764864 or DMSO control. The cells were counted daily for 4 days using an automated cell counter (Countess II FL from Life Technologies). The cell proliferation in primary AMLs in FIG. 9E was performed as follows: 50,000 cells were plated in duplicate in a 96 well plate in IMDM containing 20% heat inactivated FBS plus 10 ng/ml of each SCF, IL3, IL6, TPO, and FLT3. UC-764864 was added at the indicated concentrations and cells were incubated with drug for 3 days, at which point cell viability was measured by MTS according to manufacturer's instructions.
In general terms: Formazan colour is commonly taken as a measure of viable cells.

For data set [2], the target named is T1, UBE2N (Homo sapiens, UniProt P61088).
T1 sequence (P61088 1-152): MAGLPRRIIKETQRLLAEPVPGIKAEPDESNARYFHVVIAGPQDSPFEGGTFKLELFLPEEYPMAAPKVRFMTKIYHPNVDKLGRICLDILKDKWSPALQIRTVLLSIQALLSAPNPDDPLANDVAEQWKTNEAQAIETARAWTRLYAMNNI
In words: Cellular thermal shift assay (CETSA) in MOLM-13 cells. The data set is classed as binding. The arrangement: quantification of Ts, for endogenous UBE2N; endogenous in cells; host or cells: MOLM-13. The note with it: MOLM-13, 1 hour, heat challenge at Tagg(75); read-out: EC50 of stabilization of UBE2N (CETSA). Here is the method:
CETSA was performed with MOLM-13 cells cultured in RPMI medium supplemented with 10% FBS. For an initial determination of the melting profile of UBE2N, fresh cell lysate prepared in non-denaturing buffer was dispensed into 96-well PCR plate in the above medium (approx. 8000 cells/well/50 μl), then was subjected to temperature gradient (37-60° C.) for 20 min. Subsequently, centrifugation was performed at 14,000 rpm to sediment the unstable protein content. Supernatant was collected and SDS-PAGE gel was run, and immuno-detection was performed for UBE2N using corresponding primary antibody. Band intensity was quantified on LI-COR C-Digit Blot Scanner, and subsequently Tagg(50) and Tagg(75) values were calculated for UBE2N. In a subsequent run, fresh lysates of MOLM-13 cells were treated at various doses with 4-fold dilutions (10, 2.5, 0.62, 0.15, 0.04, 0.01 and 0.002 .tM) of compounds UC-764864 and UC-764865 together with DMSO control, for 1 hour. Samples were then subjected to heat challenge at Tagg(75) for 20 min, and unstable protein was removed by centrifugation step. Following an immuno-blotting step, bands of remaining stable UBE2N were quantified, normalized to loading control and plotted using GraphPad Prism software. EC50 values of engagement for both compounds with UBE2N were subsequently calculated.

A short description of data set [3]: In vivo preclinical pharmacokinetic analysis. Set-up: species or system C57BL/6 mice. The note with it: for drug-like / pharmacokinetic properties in words: mice; for AUC(0-inf) / AUC(0-t) / Cmax / Tmax / half-life: mouse, blood, ip, C57BL/6 mice, 20 mg/kg i.p., mean; for half-life: read-out: T½ (converted). Here is the method:
PK studies of UC-764864 and UC-764865 were performed in C57BL/6 mice (18-22 g). 10 mg/kg and 20 mg/kg UC-764864 or UC-764865 was administered through intraperitoneal (i.p.) injection. After dosing, blood samples were collected at 15 min, 30 min, 1 h, 2 h, 4 h, 8 h, 12 h, and 24 h. Samples from three animals were collected at each time point. Approximately 500 μL of blood was collected via orbital vein from each mouse, processed, and analyzed by LC-MS. Standard curves were prepared in blood covering the concentration range of 50-3,0000 ng/mL. Using the data from the standard curves, calibration curves were generated for PK tests. For in vivo toxicity studies, 25 mg/kg UC-764864, UC-764865, 10 mg/kg NSC697923 or vehicle control (methocel 0.5% tween-20 0.2%,0.1% DMSO in water) were administered in B6.SJL-Ptprca Pepcb/BoyJ mice (n=3/group) through i.p. injection. For 2 weeks the mice received 4 doses of each compound. Routine body weight and blood counts were performed. At the end of the study, tissues were harvested, placed in 10% buffered formalin, stained with hematoxylin and eosin (H&E) and examined by a pathologist.

Regarding `CCc1ccc(C(=O)C=CSc2nc3ccc(C)cc3[nH]2)cc1` [UC-764864, 1-(4-ethylphenyl)-3-[(6-methyl-1H-benzimidazol-2-yl)sulfanyl]prop-2-en-1-one], the “cytotoxicity screen in MOLM-13 cells” value in data set [1] is “cytotoxic effects”. The molecule further displayed a 50% inhibitory concentration (IC50) in data set [1] (Homo sapiens, MOLM-13, MTS, 24 hours) of 1900 nM. In addition, the 50% effective concentration (EC50) in data set [2] turned out to be 2200 nM. For the same molecule, in data set [3], the “drug-like / pharmacokinetic properties in words” value is “poor pharmacokinetic (PK) properties”, the AUC(0-inf) was found to be 461 ng·h/mL, the AUC(0-t) was 436 ng·h/mL and the Cmax stood at 446 ng/mL. Further, in data set [3], the time to peak (Tmax) turned out to be 15 min and the half-life was 124 min.

In the case of `COc1ccc(C(=O)C=CSc2nc3ccc(C)cc3[nH]2)cc1` [UC-764865, 1-(4-methoxyphenyl)-3-[(6-methyl-1H-benzimidazol-2-yl)sulfanyl]prop-2-en-1-one], the “cytotoxicity screen in MOLM-13 cells” value in data set [1] is “cytotoxic effects”. The EC50 in data set [2] is 420 nM. In data set [3], the “drug-like / pharmacokinetic properties in words” value was “modestly improved solubility, stability, and PK properties”; the AUC(0-inf) worked out at 413 ng·h/mL; the AUC(0-t) turned out to be 346 ± 46.3 ng·h/mL; the highest concentration (Cmax) stood at 216 ng/mL. For the same molecule, in data set [3], the time to peak (Tmax) worked out at 19.8 min and the half-life is 528 min.
